Laboratory results as given in article PMC6611809, “Actin stabilizing compounds show specific biological effects due to their binding mode” (Scientific Reports, 2019).

Biological target: T1, actin (F-actin) (Oryctolagus cuniculus, UniProt P68135)
T1 construct: gene ACTA1; Atto488-labeled F-actin from rabbit skeletal muscle
Experiment: TIRF displacement of rhodamine-phalloidin from purified actin filaments; supported by pyrene, TIRF and FCS polymerization assays
Assay type: binding
Description: TIRF displacement of rhodamine-phalloidin from purified actin filaments; supported by pyrene, TIRF and FCS polymerization assays on actin (F-actin) | Rhodamine-labeled phalloidin could be displaced from actin filaments by MiuA in a concentration dependent manner

IC50: ~5 nM
SMILES: CO/C(=C1/NC(=O)C(Cc2ccc(O)c(Br)c2)N(C)C(=O)C(C)NC(=O)CCC/C=C(\C)CCC(C)OC1=O)c1ccccc1 (stereo not shown) [MiuA, Miuraenamide A]
